Source: patent US5773225A, “Screening method for the identification of compounds capable of abrogation HIV-1 gag-cyclophilin complex formation” (The Trustees of Columbia University in the City of New York, priority 1994, dated 1998)
Non-standard residues stand in square brackets, D forms with d. Residues, ends and D or L forms follow the SMILES beside them. ξ: configuration not given here. ξNMeBmt = C/C=C/C[C@@H](C)[C@@H](O)C(NC)C(=O)O; NMeL = CN[C@@H](CC(C)C)C(=O)O; NMeV = CN[C@H](C(=O)O)C(C)C; NMeA = CN[C@@H](C)C(=O)O; Abu = CC[C@H](N)C(=O)O; Sar = CNCC(=O)O

B1: Tat protein: Purified Tat protein (HIV-1) (protein, UniProt P04608 1-86, looked up)
Protein Tat: MEPVDPRLEPWKHPGSQPKTACTNCYCKKCCFHCQVCFITKALGISYGRKKRRQRRRAHQNSQTHQASLSKQPTSQPRGDPTGPKE

Assays:
[1] = tested on: calcineurin (CN); conditions: complex with FKBP; cited from earlier work
[2] = tested on: T cell activation; conditions: Sigal et al., 1991; cited from earlier work
[3] = tested on: CyPs; conditions: Sigal et al., 1991; cited from earlier work
[4] = tested on: FKBP; conditions: Bierer et al., 1990; cited from earlier work
[5] = tested on: CyPA; assay: Yeast GAL4 two hybrid, Gag/mutant fusions versus clone 2.1 (CyPA); assay type: cell-based, Human; conditions: versus 2.1 / CyPA
Description: (§1) FIG. 2. The Effect of Mutations in Pr55^gag on the Ability of Gag-GAL4 Fusion Proteins to Activate β-Gal Activity in Yeast Cotransformed with GAL4-CyP Fusion Protein Expression Plasmids. Mutant forms of Pr55^gag were subcloned into pGAL4DB-HG. A schematic of the gag coding sequence is shown, and sequence numbers indicated the nucleotide position in the HXB2C provirus with respect to the 5' end of the 5' long terminal repeat. The names of the mutants indicate the nucleotide sequences deleted or the location of linker inserts. Coding sequences retained by the mutants are shown with a box. Linker insertion mutations are denoted with a triangle. Yeast strain GGY1::171, which carries a GAL1-lacZ fusion gene integrated into the chromosome, was cotransformed with each mutant plasmid against plasmid 2.1 and against plasmid 4.1. Colonies were replica-plated onto nitrocellulose filters and scored for β-gal activity by incubation with X-Gal. Open boxes or triangles indicate that when tested against either 2.1 or 4.1, the mutant had activity equivalent to that of the wild-type (WT) Pr55^gag.
(§2) To localize the portion of Gag that mediates binding to the CyPs, the effect on binding of mutations in the Pr55^gag coding sequence was examined. […] Each of these plasmids encodes a stable fusion protein of the expected size detected on Western blot (Luban et al., 1993). […]

[6] = tested on: CyPB; assay: Yeast GAL4 two hybrid, Gag/mutant fusions versus clone 4.1 (CyPB); assay type: cell-based, Human; conditions: versus 4.1 / CyPB
Description: as §1, §2

[7] = tested on: lymphocyte; conditions: Viscidi et al., 1989; cited from earlier work

Molecule | binding to and inhibiting CN phosphatase activity as FKBP complex [1] | two hybrid interaction with CyPA (in words) [5] | two hybrid interaction with CyPB (in words) [6] | further results
C=CC[C@@H]1/C=C(\C)C[C@H](C)C[C@H](OC)[C@H]2O[C@@](O)(C(=O)C(=O)N3CCCC[C@H]3C(=O)O[C@H](/C(C)=C/[C@@H]3CC[C@@H](O)[C@H](OC)C3)[C@H](C)[C@@H](O)CC1=O)[C@H](C)C[C@@H]2OC [FK506] | capable of binding to and inhibiting the phosphatase activity of CN | – | – | –
C/C=C/C[C@@H](C)[C@@H](O)C1C(=O)N[C@@H](CC)C(=O)N(C)CC(=O)N(C)[C@@H](CC(C)C)C(=O)N[C@@H](C(C)C)C(=O)N(C)[C@@H](C)C(=O)N[C@@H](C)C(=O)N[C@H](C)C(=O)N(C)[C@@H](CC(C)C)C(=O)N(C)[C@@H](CC(C)C)C(=O)N(C)[C@@H](C(C)C)C(=O)N1C (stereo partly shown) [MeAla-CsA] (cyclo(A[dA][NMeL][NMeL][NMeV][ξNMeBmt][Abu][Sar][NMeL]V[NMeA])) | – | – | – | suppression of T cell activation [2]: do not suppress T cell activation; binding to CyPs [3]: bind to CyPs
CO[C@H]1C[C@@H]2CC[C@@H](C)[C@@](O)(O2)C(=O)C(=O)N2CCCC[C@H]2C(=O)O[C@H]([C@H](C)C[C@@H]2CC[C@@H](O)[C@H](OC)C2)CC(=O)[C@H](C)/C=C(\C)[C@@H](O)[C@@H](OC)C(=O)[C@H](C)C[C@H](C)/C=C/C=C/C=C/1C [Rapamycin] | not capable of binding CN | – | – | competition with FK506 for binding to FKBP [4]: competes with FK506 for binding to FKBP
MPMV pr76^gag: Gag polyprotein of Mason-Pfizer monkey virus | – | no detectable activity | no detectable activity | –
MoMLV Pr65^gag: Gag polyprotein of Moloney murine leukemia virus | – | no detectable activity | no detectable activity | –
B1 | – | – | – | antigen-stimulated lymphocyte proliferation [7]: inhibits
